# Measurements reported in patent publication US7435837B2, “Dihydrobenzofuranyl alkanamine derivatives and methods for using same” (Wyeth, priority 2003, dated 2008).
# Molecular target: T1, human 5-hydroxytryptamine-2C (h5-HT2C) receptor (Homo sapiens, UniProt P28335)
# T1 construct: expressed in transfected cells; host or cells: CHO (Chinese Hamster Ovary) cells; membranes
# T1 sequence (P28335 33-458): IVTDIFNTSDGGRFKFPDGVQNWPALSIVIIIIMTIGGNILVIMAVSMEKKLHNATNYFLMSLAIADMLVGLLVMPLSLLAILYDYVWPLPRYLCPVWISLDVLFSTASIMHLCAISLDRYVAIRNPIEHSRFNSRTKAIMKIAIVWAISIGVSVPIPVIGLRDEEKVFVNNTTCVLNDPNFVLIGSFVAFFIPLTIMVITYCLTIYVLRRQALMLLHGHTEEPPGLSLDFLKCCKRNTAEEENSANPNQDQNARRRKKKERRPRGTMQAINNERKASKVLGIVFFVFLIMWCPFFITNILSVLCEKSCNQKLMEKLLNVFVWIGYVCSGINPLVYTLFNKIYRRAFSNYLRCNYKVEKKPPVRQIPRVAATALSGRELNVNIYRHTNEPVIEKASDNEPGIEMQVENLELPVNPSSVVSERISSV
# Test: [125I]DOI binding to membranes of CHO cells expressing the human 5-HT2C receptor
# Conditions: [125I]DOI radioligand, CHO cell membranes, room temperature 60 min; read-out: 5-HT2C Affinity Ki
row,Ki,SMILES
1,59 nM,"COc1cccc(-c2cc(C(F)(F)F)cc3c2OC(CN)C3)c1 (racemic) [Example 321, (±)-{[5-(trifluoromethyl)-7-(3-methoxyphenyl)-2,3-dihydro-1-benzofuran-2-yl]methyl}amine]"
2,427 nM,"NCC1Cc2cc(C(F)(F)F)cc(-c3cccc(C(F)(F)F)c3)c2O1 (racemic) [Example 322, (±)-{[5-(trifluoromethyl)-7-(3-(trifluoromethyl)phenyl)-2,3-dihydro-1-benzofuran-2-yl]methyl}amine]"
3,161 nM,"Cc1ccc(-c2cc(C(F)(F)F)cc3c2OC(CN)C3)cc1 (racemic) [Example 323, (±)-{[5-(trifluoromethyl)-7-(4-methylphenyl)-2,3-dihydro-1-benzofuran-2-yl]methyl}amine]"
4,60 nM,"NCC1Cc2cc(C(F)(F)F)cc(-c3ccc(F)cc3)c2O1 (racemic) [Example 324, (±)-{[5-(trifluoromethyl)-7-(4-fluorophenyl)-2,3-dihydro-1-benzofuran-2-yl]methyl}amine]"
5,320 nM,"NCC1Cc2cc(C(F)(F)F)cc(-c3ccc(Cl)cc3)c2O1 (racemic) [Example 325, (±)-{[5-(trifluoromethyl)-7-(4-chlorophenyl)-2,3-dihydro-1-benzofuran-2-yl]methyl}amine]"
6,255 nM,"NCC1Cc2cc(C(F)(F)F)cc(-c3ccc(C(F)(F)F)cc3)c2O1 (racemic) [Example 327, (±)-{[5-(trifluoromethyl)-7-(4-(trifluoromethyl)phenyl)-2,3-dihydro-1-benzofuran-2-yl]methyl}amine]"
7,61 nM,"Cc1cccc(-c2cc(C(F)(F)F)cc3c2OC(CN)C3)c1C (racemic) [Example 328, (±)-{[7-(2,3-dimethylphenyl)-5-(trifluoromethyl)-2,3-dihydro-1-benzofuran-2-yl]methyl}amine]"
8,87 nM,"NCC1Cc2cc(C(F)(F)F)cc(-c3cccc(F)c3F)c2O1 (racemic) [Example 329, (±)-{[7-(2,3-difluorophenyl)-5-(trifluoromethyl)-2,3-dihydro-1-benzofuran-2-yl]methyl}amine]"
9,88 nM,"NCC1Cc2cc(C(F)(F)F)cc(-c3cccc(Cl)c3Cl)c2O1 (racemic) [Example 330, (±)-{[7-(2,3-dichlorophenyl)-5-(trifluoromethyl)-2,3-dihydro-1-benzofuran-2-yl]methyl}amine]"
10,324 nM,"NCC1Cc2cc(C(F)(F)F)cc(-c3ccc(F)c(F)c3)c2O1 (racemic) [Example 334, (±)-{[7-(3,4-difluorophenyl)-5-(trifluoromethyl)-2,3-dihydro-1-benzofuran-2-yl]methyl}amine]"
11,192 nM,"NCC1Cc2cc(C(F)(F)F)cc(-c3ccc(F)c(Cl)c3)c2O1 (racemic) [Example 335, (±)-{[7-(3-chloro-4-fluorophenyl)-5-(trifluoromethyl)-2,3-dihydro-1-benzofuran-2-yl]methyl}amine]"
12,328 nM,"CCCCc1ccc(-c2cc(C(F)(F)F)cc3c2OC(CN)C3)cc1 (racemic) [Example 339, (±)-{[7-(4-butylphenyl)-5-(trifluoromethyl)-2,3-dihydro-1-benzofuran-2-yl]methyl}amine]"
13,88 nM,"N#Cc1ccc(-c2cc(C(F)(F)F)cc3c2OC(CN)C3)cc1 (racemic) [Example 340, (±)-4-[2-(aminomethyl)-5-(trifluoromethyl)-2,3-dihydro-1-benzofuran-7-yl]benzonitrile]"
14,98 nM,"NCC1Cc2cc(-c3ccccc3)cc(-c3ccccc3Cl)c2O1 (racemic) [Example 345, (±)-{[7-(2-chlorophenyl)-5-phenyl-2,3-dihydro-1-benzofuran-2-yl]methyl}amine]"
15,529 nM,"NCC1Cc2cc(-c3ccccc3)cc(-c3ccccc3F)c2O1 (racemic) [Example 348, (±)-{[7-(2-fluorophenyl)-5-phenyl-2,3-dihydro-1-benzofuran-2-yl]methyl}amine]"
16,760 nM,"NCC1Cc2cc(-c3ccccc3)cc(-c3cccc(F)c3)c2O1 (racemic) [Example 349, (±)-{[7-(3-fluorophenyl)-5-phenyl-2,3-dihydro-1-benzofuran-2-yl]methyl}amine]"
17,497 nM,"NCC1Cc2cc(-c3ccccc3)cc(-c3ccc(F)cc3)c2O1 (racemic) [Example 350, (±)-{[7-(4-fluorophenyl)-5-phenyl-2,3-dihydro-1-benzofuran-2-yl]methyl}amine]"
18,87 nM,"Cc1ccccc1-c1cc(-c2ccccc2)cc2c1OC(CN)C2 (racemic) [Example 351, (±)-{[7-(2-methylphenyl)-5-phenyl-2,3-dihydro-1-benzofuran-2-yl]methyl}amine]"
19,876 nM,"Cc1cccc(-c2cc(-c3ccccc3)cc3c2OC(CN)C3)c1 (racemic) [Example 352, (±)-{[7-(3-methylphenyl)-5-phenyl-2,3-dihydro-1-benzofuran-2-yl]methyl}amine]"
20,845 nM,"Cc1ccc(-c2cc(-c3ccccc3)cc3c2OC(CN)C3)cc1 (racemic) [Example 353, (±)-{[7-(4-methylphenyl)-5-phenyl-2,3-dihydro-1-benzofuran-2-yl]methyl}amine]"

row,Ki,SMILES
1,610 nM,"NCC1Cc2cc(-c3ccccc3)cc(-c3ccc(F)cc3F)c2O1 (racemic) [Example 354, (±)-{[7-(2,4-difluorophenyl)-5-phenyl-2,3-dihydro-1-benzofuran-2-yl]methyl}amine]"
2,385 nM,"NCC1Cc2cc(-c3ccccc3)cc(-c3cc(Cl)ccc3Cl)c2O1 (racemic) [Example 355, (±)-{[7-(2,5-dichlorophenyl)-5-phenyl-2,3-dihydro-1-benzofuran-2-yl]methyl}amine]"
3,7 nM,"COc1cc2c(c(-c3ccccc3C)c1)OC(CN)C2 (racemic) [Example 358, (±)-{[7-(2-methylphenyl)-5-methoxy-2,3-dihydro-1-benzofuran-2-yl]methyl}amine]"
4,71 nM,"Cc1ccccc1-c1cc(F)c2c(c1)CC(CN)O2 (racemic) [Example 375, (±)-{[7-fluoro-5-(2-methylphenyl)-2,3-dihydro-1-benzofuran-2-yl]methyl}amine]"
5,88 nM,"NCC1Cc2cc(-c3ccccc3Cl)cc(F)c2O1 (racemic) [Example 376, (±)-{[7-fluoro-5-(2-chlorophenyl)-2,3-dihydro-1-benzofuran-2-yl]methyl}amine]"
6,194 nM,"NCC1Cc2cc(-c3ccccc3F)cc(F)c2O1 (racemic) [Example 377, (±)-{[7-fluoro-5-(2-fluorophenyl)-2,3-dihydro-1-benzofuran-2-yl]methyl}amine]"
7,201 nM,"NCC1Cc2cc(-c3ccccc3C(F)(F)F)cc(F)c2O1 (racemic) [Example 378, (±)-({7-fluoro-5-[2-(trifluoromethyl)phenyl]-2,3-dihydro-1-benzofuran-2-yl}methyl)amine]"
8,453 nM,"COc1ccccc1-c1cc(F)c2c(c1)CC(CN)O2 (racemic) [Example 379, (±)-{[7-fluoro-5-(2-methoxyphenyl)-2,3-dihydro-1-benzofuran-2-yl]methyl}amine]"
9,424 nM,"Cc1cccc(-c2cc(F)c3c(c2)CC(CN)O3)c1 (racemic) [Example 380, (±)-{[7-fluoro-5-(3-methylphenyl)-2,3-dihydro-1-benzofuran-2-yl]methyl}amine]"
10,923 nM,"NCC1Cc2cc(-c3cccc(F)c3)cc(F)c2O1 (racemic) [Example 381, (±)-{[7-fluoro-5-(3-fluorophenyl)-2,3-dihydro-1-benzofuran-2-yl]methyl}amine]"
11,801 nM,"NCC1Cc2cc(-c3cccc(Cl)c3)cc(F)c2O1 (racemic) [Example 382, (±)-{[7-fluoro-5-(3-chlorophenyl)-2,3-dihydro-1-benzofuran-2-yl]methyl}amine]"
12,1760 nM,"NCC1Cc2cc(-c3cccc(C(F)(F)F)c3)cc(F)c2O1 (racemic) [Example 383, (±)-({7-fluoro-5-[3-(trifluoromethyl)phenyl]-2,3-dihydro-1-benzofuran-2-yl}methyl)amine]"
13,1260 nM,"COc1cccc(-c2cc(F)c3c(c2)CC(CN)O3)c1 (racemic) [Example 384, (±)-{[7-fluoro-5-(3-methoxyphenyl)-2,3-dihydro-1-benzofuran-2-yl]methyl}amine]"
14,1350 nM,"Cc1ccc(-c2cc(F)c3c(c2)CC(CN)O3)cc1 (racemic) [Example 385, (±)-{[7-fluoro-5-(4-methylphenyl)-2,3-dihydro-1-benzofuran-2-yl]methyl}amine]"
15,1020 nM,"NCC1Cc2cc(-c3ccc(Cl)cc3)cc(F)c2O1 (racemic) [Example 386, (±)-{[7-fluoro-5-(4-chlorophenyl)-2,3-dihydro-1-benzofuran-2-yl]methyl}amine]"
16,1550 nM,"NCC1Cc2cc(-c3ccc(F)cc3)cc(F)c2O1 (racemic) [Example 387, (±)-{[7-fluoro-5-(4-fluorophenyl)-2,3-dihydro-1-benzofuran-2-yl]methyl}amine]"
17,1580 nM,"NCC1Cc2cc(-c3ccc(C(F)(F)F)cc3)cc(F)c2O1 (racemic) [Example 388, (±)-({7-fluoro-5-[4-(trifluoromethyl)phenyl]-2,3-dihydro-1-benzofuran-2-yl}methyl)amine]"
18,1620 nM,"COc1ccc(-c2cc(F)c3c(c2)CC(CN)O3)cc1 (racemic) [Example 389, (±)-{[7-fluoro-5-(4-methoxyphenyl)-2,3-dihydro-1-benzofuran-2-yl]methyl}amine]"
19,0.5 nM,"NCC1Cc2ccc(Cl)c(-c3ccccc3Cl)c2O1 (racemic) [Example 400, (±)-{[6-chloro-7-(2-chlorophenyl)-2,3-dihydro-1-benzofuran-2-yl]methyl}amine]"
